This is an account of results in ChEMBL document CHEMBL5523716, “Discovery of novel EGFR-PROTACs capable of degradation of multiple EGFR-mutated proteins” (Eur J Med Chem, 2024).

The source made the active and inactive calls. The rule behind the calls is not given here.

Data set [1] can be described thus: Metabolic stability in monkey liver microsomes assessed as elimination rate constant at 1 uM incubated upto 60 mins in presence of NADPH by LC-MS/MS analysis. Format: ADME, Macaca mulatta, Microsome. To be noted: rhesus monkey. A general note: Microsomes from liver hold many membrane-bound enzymes, among them those of drug oxidation.
Data set [2] in a line: Metabolic stability in dog liver microsomes assessed as half-life at 1 uM incubated upto 60 mins in presence of NADPH by LC-MS/MS analysis. Format: ADME, Canis lupus familiaris, Microsome.
Data set [3] is described as follows: Half life in SPF ICR mouse at 2 mg/kg,iv measured upto 24 hrs by LC-MS/MS analysis. Format: ADME, organism-based. The conditions noted are these: in vivo.
Data set [4] in a line: Tmax in SPF ICR mouse at 5 mg/kg,ip measured upto 24 hrs by LC-MS/MS analysis. The class given is ADME, organism-based. To be noted: in vivo.
Data set [5] can be described thus: AUC (0 to infinity) in SPF ICR mouse at 2 mg/kg,iv measured upto 24 hrs by LC-MS/MS analysis. The conditions noted are these: in vivo. Format: ADME, organism-based.
The nature of data set [6]: MRT (0 to t) in SPF ICR mouse at 2 mg/kg,iv measured upto 24 hrs by LC-MS/MS analysis. The class given is ADME, organism-based. The conditions noted are these: in vivo.
The nature of data set [7]: MRT (0 to infinity) in SPF ICR mouse at 2 mg/kg,iv measured upto 24 hrs by LC-MS/MS analysis. The class given is ADME, organism-based. The conditions noted are these: in vivo.
Data set [8] concerns von Hippel-Lindau disease tumor suppressor/Epidermal growth factor receptor (Homo sapiens), P00533+P40337 [L858R,T790M,C797S]. Kind of data set: PROTAC activity at VHL/EGFR L858R/T790M/C797S mutant in human H1975-TM cells assessed as maximal EGFR degradation at 0.03 to 2.5 uM incubated for 48 hrs by Western blot analysis relative to control. The class given is cell-based. The conditions noted are these: dose 0.03-2.5 µM.

The test system of data set [9] is von Hippel-Lindau disease tumor suppressor/Epidermal growth factor receptor (Homo sapiens), P00533+P40337 [UNDEFINED MUTATION]. Briefly: PROTAC activity at VHL/EGFR Del19 mutant in human HCC827 cells assessed as downregulation of AKT phosphorylation incubated for 72 hrs by Western blot analysis. Format: cell-based. In general terms: A western blot detects proteins with antibodies after separation by electrophoresis.

Data set [10] has the same test system. Kind of data set: PROTAC activity at VHL/EGFR Del19 mutant in human HCC827 cells assessed as induction of EGFR degradation at 100 nM preincubated with MLN-4924 for 6 hrs followed by compound treatment for 48 hrs by Western blot analysis. The class given is cell-based.
Data set [11] deals with HCC827. Briefly: Antitumor activity against human HCC827 cells xenografted in BALB/c mouse assessed as tumor growth inhibition at 1.25 mg/kg,ip once daily for 28 days relative to control. The class given is functional. To be noted: HCC827, 672 h, time 28 day, read-out: TGI.
The subject of data set [12] is HCC827. Briefly: Antitumor activity against human HCC827 cells xenografted in BALB/c mouse assessed as tumor growth inhibition at 2.5 mg/kg,ip once daily for 28 days relative to control. The class given is functional. To be noted: HCC827, 672 h, time 28 day, read-out: TGI. A general note: Xenograft models place foreign cells or tissue in a host animal.
Data set [13] deals with HCC827. Briefly: Antitumor activity against human HCC827 cells xenografted in BALB/c mouse assessed as tumor growth inhibition at 5 mg/kg,ip once daily for 28 days relative to control. Format: functional. To be noted: HCC827, 672 h, time 28 day, read-out: TGI.
A further data set relates to NCI-H1975. Kind of data set: Antitumor activity against human NCI-H1975 cells xenografted in BALB/c mouse assessed as tumor growth inhibition at 5 mg/kg,ip once daily for 22 days relative to control. Format: functional. The conditions noted are these: NCI-H1975, 528 h, time 22 day, read-out: TGI.
Data set [14] can be described thus: Antitumor activity against human H1975-TM cells xenografted in BALB/c mouse assessed as tumor growth inhibition at 5 mg/kg,ip once daily for 14 days relative to control. The class given is functional. To be noted: 336 h, time 14 day, read-out: TGI.
Data set [15] is described as follows: Toxicity in BALB/c mouse xenografted with human H1975-TM cells assessed as change in body weight at 5 to 20 mg/kg,ip once daily for 14 days. Format: organism-based. To be noted: in vivo, 336 h, dose 5-20 mg/kg, time 14 day.
The next data set concerns H1975-TM. Briefly: Antitumor activity against human H1975-TM cells xenografted in BALB/c mouse assessed as downregulation of ERK phosphorylation in tumor at 5 to 20 mg/kg,ip once daily for 14 days by Western blot analysis. The class given is functional, organism-based. To be noted: dose 5-20 mg/kg, time 14.0 day.

Chain of von Hippel-Lindau disease tumor suppressor/Epidermal growth factor receptor (Homo sapiens), P00533+P40337 [UNDEFINED MUTATION] (P00533 whole entry, looked up, stated change not applied): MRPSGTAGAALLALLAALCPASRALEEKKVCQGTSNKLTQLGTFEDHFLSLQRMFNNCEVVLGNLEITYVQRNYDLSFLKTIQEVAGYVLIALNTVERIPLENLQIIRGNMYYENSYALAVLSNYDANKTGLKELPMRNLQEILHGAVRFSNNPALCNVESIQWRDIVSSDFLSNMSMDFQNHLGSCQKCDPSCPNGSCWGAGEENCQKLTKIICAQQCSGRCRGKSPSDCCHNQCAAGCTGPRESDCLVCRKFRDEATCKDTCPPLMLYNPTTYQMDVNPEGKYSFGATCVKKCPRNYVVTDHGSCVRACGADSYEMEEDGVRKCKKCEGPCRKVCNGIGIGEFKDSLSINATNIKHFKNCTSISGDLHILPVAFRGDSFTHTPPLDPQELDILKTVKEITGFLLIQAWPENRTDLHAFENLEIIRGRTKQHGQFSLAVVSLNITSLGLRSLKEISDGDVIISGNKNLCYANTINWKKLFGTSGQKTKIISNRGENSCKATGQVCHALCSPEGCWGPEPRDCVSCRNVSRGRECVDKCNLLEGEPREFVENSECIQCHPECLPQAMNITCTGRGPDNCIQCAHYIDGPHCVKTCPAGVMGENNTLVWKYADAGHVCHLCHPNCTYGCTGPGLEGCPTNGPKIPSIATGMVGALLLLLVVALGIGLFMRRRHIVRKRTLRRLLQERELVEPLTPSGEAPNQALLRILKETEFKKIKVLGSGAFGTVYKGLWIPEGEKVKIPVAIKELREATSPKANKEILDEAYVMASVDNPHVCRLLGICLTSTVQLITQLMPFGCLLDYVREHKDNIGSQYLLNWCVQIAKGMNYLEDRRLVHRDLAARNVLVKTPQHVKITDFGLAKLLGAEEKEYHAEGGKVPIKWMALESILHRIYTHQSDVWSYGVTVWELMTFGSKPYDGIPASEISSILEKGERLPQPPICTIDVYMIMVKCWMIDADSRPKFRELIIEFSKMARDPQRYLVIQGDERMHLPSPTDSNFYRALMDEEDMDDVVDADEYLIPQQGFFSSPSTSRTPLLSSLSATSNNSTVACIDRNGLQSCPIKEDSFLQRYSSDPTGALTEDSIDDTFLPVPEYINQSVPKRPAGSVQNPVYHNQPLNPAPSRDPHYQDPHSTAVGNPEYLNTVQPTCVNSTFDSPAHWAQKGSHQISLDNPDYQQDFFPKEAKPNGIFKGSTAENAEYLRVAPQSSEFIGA
Chain of von Hippel-Lindau disease tumor suppressor/Epidermal growth factor receptor (Homo sapiens), P00533+P40337 [UNDEFINED MUTATION] (P40337 whole entry, looked up, stated change not applied): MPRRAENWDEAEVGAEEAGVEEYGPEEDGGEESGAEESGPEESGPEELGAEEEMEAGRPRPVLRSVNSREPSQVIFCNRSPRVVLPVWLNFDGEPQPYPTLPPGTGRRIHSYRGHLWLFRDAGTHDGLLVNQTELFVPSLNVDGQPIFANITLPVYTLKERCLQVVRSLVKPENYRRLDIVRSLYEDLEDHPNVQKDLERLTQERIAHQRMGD

The term half-life denotes how long it takes for the measured level to halve. What is called Tmax is the time at which the peak concentration occurs. One may read the AUC(0-inf) as total exposure, with the tail of the curve extrapolated. In general, MRT last refers to the average time that molecules of a dose stay in the body. The term MRT inf denotes a mean duration of stay, worked out from the concentration-time curve. As for `CCN(CC)C/C=C/C(=O)Nc1cc2c(Nc3ccc(F)c(Cl)c3)ncnc2cc1OCc1cn(CCCCCCCC(=O)N[C@H](C(=O)N2C[C@H](O)C[C@H]2C(=O)N[C@H](C)c2ccc(-c3scnc3C)cc2)C(C)(C)C)nn1`, the k el at 1 h, 1 µM in data set [1] is 0.0003 s⁻¹. In addition, in data set [2], the half-life at 1 µM is 1.3 h. The compound also showed a half-life in data set [3] of 1.67 h. For the same compound, in [4], the Tmax was determined as 2 h. In data set [5], the AUC(0-inf) amounted to 2360 ng·h/mL. Besides, in data set [6], the MRT last at 24 h stood at 0.29 h. In data set [7], the MRT inf was determined as 0.34 h. Also, the Emax in [8] turned out to be 94%. Moreover, the Activity entry is “Dose-Dependent Effect” in data set [9] and “Non-Toxic” in data set [15]. Moreover, in data set [10], the result was inactive. In addition, in the data set with HCC827 [11], the inhibition in vivo at 1.25 mg/kg turned out to be 41%. Moreover, the inhibition in vivo at 2.5 mg/kg in the data set on HCC827 [12] worked out at 67%. The inhibition in vivo at 5 mg/kg was 88% in the data set with HCC827 [13], 56% in the data set with NCI-H1975 and 24% in [14]. In addition, in the data set on H1975-TM, the outcome was Active.
